The text below walks through data of US10703764B2, “Benzopiperazine compositions as BET bromodomain inhibitors” (FORMA Therapeutics, Inc., priority 2013, dated 2020).

The target in experiment [1] is T1, BRD4 BD2 (Homo sapiens, UniProt O60885).
T1 construct: made in house
The experiment is described as follows: AlphaScreen binding assay, BRD4 Bromodomain 2. Here is the method:
(§1) The binding of Example compounds to BRD4 Bromodomain 1 and BRD4 Bromodomain 2 was assessed using 384-well AlphaScreen assay technology. His-epitope tagged BRD4 BD144-168 and BRD4 BD2333-460 were cloned, expressed, and purified to homogeneity. BRD4 BD1 and BRD4 BD2 binding and inhibition was assessed by monitoring the engagement of biotinylated Histone H4 (1-21) K5/8/12/16 tetra-acetylated peptide with the targets using the AlphaScreen technology (PerkinElmer). Specifically, in a 384-well black or white flat bottom plate, BRD4 BD1 (50 nM final) or BRD4 BD2 (100 nM final) was combined with peptide (50 nM final for BD1 or 100 nM final for BD2) in 50 mM HEPES (pH 7.3), 100 mM NaCl, 0.1% (w/v) BSA, and 0.01% (w/v) Triton X-100 either in the presence of DMSO (final 1.25% DMSO) or compound dilution series in DMSO. Alpha streptavidin donor beads and Nickel-chelate acceptor beads were added to a final concentration of 10 μg/ml each. After a minimum of 1 hour equilibration, plates were read on a BMG PHERAstar FS multi-label reader (BMG LabTech). The half maximal inhibitory concentration (IC50) values were calculated using IDBS Activity Base software with a four parameter logistic curve fit by the equation y=A+((B−A)/(1+((C/x)^D))), wherein A denotes the bottom plateau of the curve, B denotes the top plateau of the curve, C denotes the x value at the middle of the curve, D denotes the slope factor, x denotes the original known x values, and y denotes the original known y values. Data was fitted using the Levenburg Marquardt algorithm.

Experiment [2] deals with T2, BRD4 BD1 (Homo sapiens, UniProt O60885).
T2 construct: made in house
The experiment is described as follows: AlphaScreen binding assay, BRD4 Bromodomain 1. Here is the method:
as §1
(Alpha assays give light when donor and acceptor beads are brought close together.)

Molecules are shown by their SMILES.

As for `CC(=O)N1c2ccc(-c3cnn(C4COC4)c3)cc2N(C(=O)[C@@H]2CC2(Cl)Cl)C[C@@H]1C` (single isomer, unassigned) [Example I-112], the IC50 lay in the range of 50 to 500 nM in experiment [1] and 1000 to 10000 nM in experiment [2].

Turning to `CC(=O)N1c2ccc(-c3cnn(C4COC4)c3)cc2N(C(=O)[C@H]2CC2(Cl)Cl)C[C@@H]1C` (single isomer, unassigned) [Example I-113], the results for the IC50 in experiment [1] and in experiment [2] were greater than 500 nM and greater than 10000 nM, respectively.

As for `CC[C@H]1CN(C(=O)c2ccco2)c2cc(-c3ccc(S(C)(=O)=O)cc3)ccc2N1C(C)=O` [Example I-6, (S)-1-(2-ethyl-4-(furan-2-carbonyl)-6-(4-(methylsulfonyl)phenyl)-3,4-dihydroquinoxalin-1(2H)-yl)ethan-1-one], the 50% inhibitory concentration (IC50) lay in the range of 50 to 500 nM in experiment [1] and 1000 to 10000 nM in experiment [2].

Regarding `CC(=O)N1c2ccc(-c3ccc(S(C)(=O)=O)cc3)cc2N(C(=O)c2ccco2)CC1CF` (centres unmarked) [Example I-7, 1-(2-(fluoromethyl)-4-(furan-2-carbonyl)-6-(4-(methylsulfonyl)phenyl)-3,4-dihydroquinoxalin-1(2H)-yl)ethan-1-one], the IC50 was greater than 500 nM in experiment [1] and greater than 10000 nM in experiment [2].

Turning to `CC(=O)N1c2ccc(-c3cnn(C4COC4)c3)cc2N(C(=O)C2CCC2)C[C@@H]1C` [Example I-11, (S)-1-(4-(cyclobutanecarbonyl)-2-methyl-6-(1-(oxetan-3-yl)-1H-pyrazol-4-yl)-3,4-dihydroquinoxalin-1(2H)-yl)ethanone], the IC50 was in the range of 50 to 500 nM in experiment [1] and 1000 to 10000 nM in experiment [2].

As to `CC(=O)N1c2ccc(-c3ccc(S(C)(=O)=O)cc3)cc2N(C(=O)OC2CCC(F)(F)CC2)C[C@@H]1C` [Example I-32, (S)-4,4-difluorocyclohexyl 4-acetyl-3-methyl-7-(4-(methylsulfonyl)phenyl)-3,4-dihydroquinoxaline-1(2H)-carboxylate], the results for the IC50 in experiment [1] and in experiment [2] were less than 50 nM and 100 to 1000 nM, respectively.

Consider `CC(=O)N1c2ccc(-c3ccc(S(C)(=O)=O)cc3)cc2N(c2ncccn2)C[C@@H]1C` [Example I-45, (S)-1-(2-methyl-6-(4-(methylsulfonyl)phenyl)-4-(pyrimidin-2-yl)-3,4-dihydroquinoxalin-1(2H)-yl)ethanone], for which the IC50 is greater than 500 nM in experiment [1] and 1000 to 10000 nM in experiment [2].

In the case of `CC(=O)N1c2ccc(-c3ccc(S(C)(=O)=O)cc3)cc2N(c2ccccn2)C[C@@H]1C` [Example I-47, (S)-1-(2-methyl-6-(4-(methylsulfonyl)phenyl)-4-(pyridin-2-yl)-3,4-dihydroquinoxalin-1 (2H)-yl)ethan-1-one], the IC50 was less than 50 nM in experiment [1] and 1000 to 10000 nM in experiment [2].

As to `CC(=O)N1c2ccc(-c3ccc(S(C)(=O)=O)cc3)cc2N(c2ncc3ccccc3n2)C[C@@H]1C` [Example I-48, (S)-1-(2-methyl-6-(4-(methylsulfonyl)phenyl)-4-(quinazolin-2-yl)-3,4-dihydroquinoxalin-1(2H)-yl)ethanone], the results for the IC50 in experiment [1] and in experiment [2] were 50 to 500 nM and 1000 to 10000 nM, respectively.

Turning to `CC(=O)N1c2ccc(-c3ccc(S(C)(=O)=O)cc3)cc2N(c2nccc(-c3ccccc3)n2)C[C@@H]1C` [Example I-49, (S)-1-(2-methyl-6-(4-(methylsulfonyl)phenyl)-4-(4-phenylpyrimidin-2-yl)-3,4-dihydroquinoxalin-1(2H)-yl)ethanone], the IC50 in experiment [1] was greater than 500 nM; in experiment [2], 1000 to 10000 nM.

Regarding `CC(=O)N1c2ccc(-c3ccc(S(C)(=O)=O)cc3)cc2N(c2ncc(-c3ccccc3)cn2)C[C@@H]1C` [Example I-50, (S)-1-(2-methyl-6-(4-(methylsulfonyl)phenyl)-4-(5-phenylpyrimidin-2-yl)-3,4-dihydroquinoxalin-1(2H)-yl)ethanone], the IC50 was greater than 500 nM in experiment [1] and 1000 to 10000 nM in experiment [2].

In the case of `CC(=O)N1c2ccc(-c3cnn(-c4nc5ccccc5o4)c3)cc2N(c2nc3ccccc3o2)C[C@@H]1C` [Example I-56, (S)-1-(4-(benzo[d]oxazol-2-yl)-6-(1-(benzo[d]oxazol-2-yl)-1H-pyrazol-4-yl)-2-methyl-3,4-dihydroquinoxalin-1(2H)-yl)ethanone], the IC50 is greater than 500 nM in experiment [1] and greater than 10000 nM in experiment [2].

For the compound `CC(=O)N1c2cnc(-c3ccc(S(C)(=O)=O)cc3)cc2N(C(=O)c2ccco2)C[C@@H]1C` [Example I-57, (S)-1-(1-(furan-2-carbonyl)-3-methyl-7-(4-(methylsulfonyl)phenyl)-2,3-dihydropyrido[3,4-b]pyrazin-4(1H)-yl)ethanone], the values for the IC50 in experiment [1] and in experiment [2] were 50 to 500 nM and greater than 10000 nM, respectively.

Turning to `CC(=O)N1c2cnc(-c3ccc(S(C)(=O)=O)cc3)cc2N(C(=O)OC(C)C)C[C@@H]1C` [Example I-58, isopropyl (S)-4-acetyl-3-methyl-7-(4-(methylsulfonyl)phenyl)-3,4-dihydro pyrido[3,4-b]pyrazine-1 (2H)-carboxylate], the IC50 in experiment [1] is greater than 500 nM; in experiment [2], 1000 to 10000 nM.

`CC(=O)N1c2ccc(-c3cnn(C4COC4)c3)cc2N(C(=O)OCC2(C)COC2)C[C@@H]1C` [Example I-61, (S)-(3-methyloxetan-3-yl)methyl 4-acetyl-3-methyl-7-(1-(oxetan-3-yl)-1H-pyrazol-4-yl)-3,4-dihydroquinoxaline-1(2H)-carboxylate]: the IC50 was greater than 500 nM in experiment [1] and 1000 to 10000 nM in experiment [2].

`CCC1(COC(=O)N2C[C@H](C)N(C(C)=O)c3ccc(-c4cnn(C5COC5)c4)cc32)COC1` [Example I-63, (S)-(3-ethyloxetan-3-yl)methyl 4-acetyl-3-methyl-7-(1-(oxetan-3-yl)-1H-pyrazol-4-yl)-3,4-dihydroquinoxaline-1(2H)-carboxylate]: the results for the IC50 in experiment [1] and in experiment [2] were 50 to 500 nM and 1000 to 10000 nM, respectively.

With `CC(=O)N1c2ccc(-c3cnn(C4COC4)c3)cc2N(C(=O)OCC2COC2)C[C@@H]1C` [Example I-64, (S)-oxetan-3-ylmethyl 4-acetyl-3-methyl-7-(1-(oxetan-3-yl)-1H-pyrazol-4-yl)-3,4-dihydroquinoxaline-1(2H)-carboxylate], the IC50 in experiment [1] is 50 to 500 nM; in experiment [2], 1000 to 10000 nM.

As for `CC(=O)N1c2ccc(-c3cnn(C4COC4)c3)cc2N(C(=O)OCCC2COC2)C[C@@H]1C` [Example I-67, (S)-2-(oxetan-3-yl)ethyl 4-acetyl-3-methyl-7-(1-(oxetan-3-yl)-1H-pyrazol-4-yl)-3,4-dihydroquinoxaline-1(2H)-carboxylate], the IC50 is greater than 500 nM in experiment [1] and greater than 10000 nM in experiment [2].

Take `CC(=O)N1c2ccc(-c3cnn(C4COC4)c3)cc2N(C(=O)OCC(C)(F)F)C[C@@H]1C` [Example I-68, (S)-2,2-difluoropropyl 4-acetyl-3-methyl-7-(1-(oxetan-3-yl)-1H-pyrazol-4-yl)-3,4-dihydroquinoxaline-1(2H)-carboxylate]: the IC50 in experiment [1] was in the range of 50 to 500 nM; in experiment [2], 100 to 1000 nM.

Consider `CC(=O)N1c2ccc(-c3cnn(C4COC4)c3)cc2N(C(=O)OC2CC3(COC3)C2)C[C@@H]1C` [Example I-70, 2-oxaspiro[3.3]heptan-6-yl (3S)-4-acetyl-3-methyl-7-[1-(oxetan-3-yl)-1H-pyrazol-4-yl]-1,2,3,4-tetrahydroquinoxaline-1-carboxylate], for which the IC50 in experiment [1] is greater than 500 nM; in experiment [2], 1000 to 10000 nM.

Regarding `CC(=O)N1c2ccc(-c3cnn(C4COC4)c3)cc2N(C(=O)OCC2CC2(C)C)C[C@@H]1C` (stereo partly drawn) [Example I-73, (2,2-dimethylcyclopropyl)methyl (3S)-4-acetyl-3-methyl-7-(1-(oxetan-3-yl)-1H-pyrazol-4-yl)-3,4-dihydroquinoxaline-1(2H)-carboxylate], the IC50 in experiment [1] fell in the range of 50 to 500 nM; in experiment [2], 1000 to 10000 nM.

On to `CC(=O)N1c2ccc(-c3cnn(C4COC4)c3)cc2N(C(=O)OCC2CC2(F)F)C[C@@H]1C` (stereo partly drawn) [Example I-75, (3S)-(2,2-difluorocyclopropyl)methyl 4-acetyl-3-methyl-7-(1-(oxetan-3-yl)-1H-pyrazol-4-yl)-3,4-dihydroquinoxaline-1(2H)-carboxylate], for which the IC50 was greater than 500 nM in experiment [1] and 1000 to 10000 nM in experiment [2].

Regarding `CC(=O)N1c2ccc(-c3cnn(C4COC4)c3)cc2N(C(=O)OC2(C)CC2)C[C@@H]1C` [Example I-76, (S)-1-methylcyclopropyl 4-acetyl-3-methyl-7-(1-(oxetan-3-yl)-1H-pyrazol-4-yl)-3,4-dihydroquinoxaline-1(2H)-carboxylate], the results for the IC50 in experiment [1] and in experiment [2] were 50 to 500 nM and 1000 to 10000 nM, respectively.

With `CC(=O)N1c2ccc(-c3cnn(C4COC4)c3)cc2N(C(=O)OCC(F)F)C[C@@H]1C` [Example I-84, (S)-2,2-difluoroethyl 4-acetyl-3-methyl-7-(1-(oxetan-3-yl)-1H-pyrazol-4-yl)-3,4-dihydroquinoxaline-1(2H)-carboxylate], the IC50 in experiment [1] is greater than 500 nM; in experiment [2] it was 1000 to 10000 nM.

As for `C[C@H]1CN(c2nc3ccccc3o2)c2cc(-c3cnn(C4CC4)c3)ccc2N1C(=O)C1CC1` [Example I-92, (S)-(4-(benzo[d]oxazol-2-yl)-6-(1-cyclopropyl-1H-pyrazol-4-yl)-2-methyl-3,4-dihydroquinoxalin-1 (2H)-yl)(cyclopropyl)methanone], the IC50 in experiment [1] lay within 50 to 500 nM; in experiment [2] it was 1000 to 10000 nM.

A word on the IC50: it is the concentration that inhibits the measured activity by half.
